Values of other authors in patent US7368458B2, “Bicyclic heterocycles as cannabinoid receptor modulators” (Bristol-Myers Squibb Company, priority 2005, dated 2008).
Read-outs that look alike come from different tables or passages of the source.

Experiments:
[1] = chronic administration for two weeks
[2] = human subjects, 16 week trial period

Compound	body weight [1]	body weight [2]
Cc1c(C(=O)NN2CCCCC2)nn(-c2ccc(Cl)cc2Cl)c1-c1ccc(I)cc1 [AM-251]	substantial body weight reduction	–
Cc1c(C(=O)NN2CCCCC2)nn(-c2ccc(Cl)cc2Cl)c1-c1ccc(Cl)cc1 [SR-141716]	–	dose-dependently reduced body weight
